Laboratory results taken from patent US9593149B2, “Amylin and calcitonin receptor agonist” (Novo Nordisk A/S, priority 2014, dated 2017).
Converted amounts (≈) assume the structure as drawn. Numbered stars: 1 amine (or outer) side, 2 acyl side, 3 side chain; on linkers, the order of the positions; unused ones are H or OH. Peptide text beside a SMILES is read from it. * marks the point of attachment. C20 diacid = O=C(O)CCCCCCCCCCCCCCCCCCC(=O)*; C18 diacid = O=C(O)CCCCCCCCCCCCCCCCC(=O)*; γGlu = O=C(O)[C@H](CCC(=O)[*:2])N[*:1]

Experiment: Assay (IV) determination of solubility
Format: physicochemical
Procedure: Assay (IV)—Determination of Solubility
The mimylin peptide was dissolved in water at ˜500 nmol/ml and mixed 1:1 with a series of buffers (100 mM glycylglycine pH 3.0, 100 mM glycylglycine pH 4.0, 100 mM glycylglycine pH 5.0, 100 mM bistrispropane pH 6.0, 100 mM bistrispropane pH 6.5, 100 mM bistrispropane pH 7.0, 100 mM bistrispropane pH 7.5, 100 mM bistrispropane pH 8.0).

Compound | Solubility (pH 3.0) | solubility at 18 h (pH 4.0) [µM] | solubility at 18 h (pH 5.0) [µM] | Solubility (pH 6.0) | Solubility (pH 6.5) | Solubility (pH 7.0) | Solubility (pH 7.5) | Solubility (pH 8.0) | Solubility (pH 4.0) | Solubility (pH 5.0)
CC(C)C[C@H](NC(=O)CNC(=O)[C@H](CO)NC(=O)[C@H](C)NC(=O)CC[C@H](NC(=O)CCCCCCCCCCCCCCCCCCC(=O)O)C(=O)O)C(=O)N[C@@H](CO)C(=O)N[C@H](C(=O)N[C@@H](C)C(=O)N[C@@H](C)C(=O)N[C@@H](CC(C)C)C(=O)NCC(=O)N[C@@H](CCCNC(=N)N)C(=O)N[C@@H](CC(C)C)C(=O)N[C@@H](CO)C(=O)N[C@@H](CCC(=O)O)C(=O)N[C@@H](CCC(=O)O)C(=O)N[C@@H](CC(C)C)C(=O)N[C@@H](Cc1cnc[nH]1)C(=O)N[C@@H](CCC(=O)O)C(=O)N[C@@H](CC(C)C)C(=O)N[C@@H](CCC(N)=O)C(=O)N[C@H](C(=O)N[C@@H](Cc1ccc(O)cc1)C(=O)N1CCC[C@H]1C(=O)N[C@@H](CCCNC(=N)N)C(=O)N[C@H](C(=O)N[C@@H](CCC(=O)O)C(=O)N[C@H](C(=O)NCC(=O)N[C@@H](CO)C(=O)NCC(=O)N[C@H](C(=O)N[C@@H](Cc1ccc(O)cc1)C(N)=O)[C@@H](C)O)[C@@H](C)O)[C@@H](C)O)[C@@H](C)O)[C@@H](C)O [compound 113, [N-terminal(C20 diacid-gGlu), des1, 4G, 15E, 21Q, 23Y, 30S, 31G, 32T, 33Y]mimylin] ({C20 diacid-γGlu}-ASGLSTAALGRLSEELHELQTYPRTETGSGTY-NH2) | ≧200 μM | 195 (≈ 751 µg/mL) | 57 (≈ 219 µg/mL) | ≧200 μM | ≧200 μM | ≧200 μM | ≧200 μM | ≧200 μM | – | –
CC(C)C[C@H](NC(=O)[C@H](C)NC(=O)[C@H](C)NC(=O)[C@@H](NC(=O)[C@H](CO)NC(=O)[C@H](CC(C)C)NC(=O)[C@H](CCC(=O)O)NC(=O)[C@H](CO)NC(=O)[C@H](C)NC(=O)[C@H](C)NC(=O)[C@H](CCC(=O)O)NC(=O)CC[C@H](NC(=O)CCCCCCCCCCCCCCCCCCC(=O)O)C(=O)O)[C@@H](C)O)C(=O)NCC(=O)N[C@@H](CCCNC(=N)N)C(=O)N[C@@H](CC(C)C)C(=O)N[C@@H](CO)C(=O)N[C@@H](C)C(=O)N[C@@H](CCC(=O)O)C(=O)N[C@@H](CC(C)C)C(=O)N[C@@H](Cc1cnc[nH]1)C(=O)N[C@@H](CCC(=O)O)C(=O)N[C@@H](CC(C)C)C(=O)N[C@@H](C)C(=O)N[C@H](C(=O)N[C@@H](Cc1ccc(O)cc1)C(=O)N1CCC[C@H]1C(=O)N[C@@H](CCCNC(=N)N)C(=O)N[C@H](C(=O)N[C@@H](CCC(=O)O)C(=O)N[C@H](C(=O)NCC(=O)N[C@@H](CO)C(=O)NCC(=O)N[C@@H](CO)C(=O)N1CCC[C@H]1C(N)=O)[C@@H](C)O)[C@@H](C)O)[C@@H](C)O [compound 83, [N-terminal(C20 diacid-gGlu), −1E, 1A, 23Y, 30S, 31G]mimylin] ({C20 diacid-γGlu}-EAASELSTAALGRLSAELHELATYPRTETGSGSP-NH2) | ≧200 μM | – | – | ≧200 μM | ≧200 μM | ≧200 μM | ≧200 μM | ≧200 μM | ≧200 μM | ≧200 μM
CC(C)C[C@H](NC(=O)[C@H](C)NC(=O)[C@H](C)NC(=O)[C@@H](NC(=O)[C@H](CO)NC(=O)[C@H](Cc1cnc[nH]1)NC(=O)[C@H](CCC(=O)O)NC(=O)[C@H](CO)NC(=O)[C@H](C)NC(=O)[C@H](CCC(=O)O)NC(=O)CCCCCCCCCCCCCCCCC(=O)O)[C@@H](C)O)C(=O)NCC(=O)N[C@@H](CCCNC(=N)N)C(=O)N[C@@H](CC(C)C)C(=O)N[C@@H](CO)C(=O)N[C@@H](C)C(=O)N[C@@H](CCC(=O)O)C(=O)N[C@@H](CC(C)C)C(=O)N[C@@H](Cc1cnc[nH]1)C(=O)N[C@@H](CCC(=O)O)C(=O)N[C@@H](CC(C)C)C(=O)N[C@@H](C)C(=O)N[C@H](C(=O)N[C@@H](CC(C)C)C(=O)N1CCC[C@H]1C(=O)N[C@@H](CCCNC(=N)N)C(=O)N[C@H](C(=O)N[C@@H](CCC(=O)O)C(=O)N[C@H](C(=O)NCC(=O)N1CCC[C@H]1C(=O)N[C@@H](CCC(=O)O)C(=O)N[C@@H](CO)C(=O)N1CCC[C@H]1C(N)=O)[C@@H](C)O)[C@@H](C)O)[C@@H](C)O [compound 17, [N-terminal(C18 diacid), 5H]mimylin] ({C18 diacid}-EASEHSTAALGRLSAELHELATLPRTETGPESP-NH2) | ≧200 μM | – | – | ≧200 μM | ≧200 μM | ≧200 μM | ≧200 μM | ≧200 μM | ≧200 μM | ≧200 μM
CC(C)C[C@H](NC(=O)[C@H](CCC(=O)O)NC(=O)[C@H](Cc1cnc[nH]1)NC(=O)[C@H](CC(C)C)NC(=O)[C@H](CCC(=O)O)NC(=O)[C@H](C)NC(=O)[C@H](CO)NC(=O)[C@H](CC(C)C)NC(=O)[C@H](CCCNC(=N)N)NC(=O)CNC(=O)[C@H](CC(C)C)NC(=O)[C@@H](NC(=O)[C@H](C)NC(=O)[C@@H](NC(=O)[C@H](CO)NC(=O)[C@H](CC(C)C)NC(=O)[C@H](CCC(=O)O)NC(=O)[C@H](CO)NC(=O)[C@@H]1CCCN1C(=O)[C@H](CCC(=O)O)NC(=O)CCCCCCCCCCCCCCCCC(=O)O)[C@@H](C)O)C(C)C)C(=O)N[C@@H](C)C(=O)N[C@H](C(=O)N[C@@H](CC(C)C)C(=O)N1CCC[C@H]1C(=O)N[C@@H](CCCNC(=N)N)C(=O)N[C@H](C(=O)N[C@@H](CCC(=O)O)C(=O)N[C@H](C(=O)NCC(=O)N1CCC[C@H]1C(=O)N[C@@H](CCC(=O)O)C(=O)N[C@@H](CO)C(=O)N1CCC[C@H]1C(N)=O)[C@@H](C)O)[C@@H](C)O)[C@@H](C)O [compound 28, [N-terminal(C18 diacid), 2P, 9V]mimylin] ({C18 diacid}-EPSELSTAVLGRLSAELHELATLPRTETGPESP-NH2) | ≧200 μM | – | – | ≧200 μM | ≧200 μM | ≧200 μM | ≧200 μM | ≧200 μM | ≧200 μM | ≧200 μM
CC(C)C[C@H](NC(=O)CNC(=O)[C@H](CO)NC(=O)[C@H](C)NC(=O)CC[C@H](NC(=O)CCCCCCCCCCCCCCCCCCC(=O)O)C(=O)O)C(=O)N[C@@H](CO)C(=O)N[C@H](C(=O)N[C@@H](C)C(=O)N[C@H](C(=O)N[C@@H](CC(C)C)C(=O)NCC(=O)N[C@@H](CCCNC(=N)N)C(=O)N[C@@H](CC(C)C)C(=O)N[C@@H](CO)C(=O)N[C@@H](C)C(=O)N[C@@H](CCC(=O)O)C(=O)N[C@@H](CC(C)C)C(=O)N[C@@H](Cc1cnc[nH]1)C(=O)N[C@@H](CCC(=O)O)C(=O)N[C@@H](CC(C)C)C(=O)N[C@@H](C)C(=O)N[C@H](C(=O)N[C@@H](Cc1ccc(O)cc1)C(=O)N1CCC[C@H]1C(=O)N[C@@H](CCCNC(=N)N)C(=O)N[C@H](C(=O)N[C@@H](CCC(=O)O)C(=O)N[C@H](C(=O)NCC(=O)N[C@@H](CO)C(=O)NCC(=O)N[C@H](C(=O)N[C@@H](Cc1ccc(O)cc1)C(N)=O)[C@@H](C)O)[C@@H](C)O)[C@@H](C)O)[C@@H](C)O)C(C)C)[C@@H](C)O [compound 104, [N-terminal(C20 diacid-gGlu), des1, 4G, 9V, 23Y, 30S, 31G, 32T, 33Y]mimylin] ({C20 diacid-γGlu}-ASGLSTAVLGRLSAELHELATYPRTETGSGTY-NH2) | ≧200 μM | – | 119 (≈ 448 µg/mL) | ≧200 μM | ≧200 μM | ≧200 μM | ≧200 μM | ≧200 μM | ≧200 μM | –
CC(C)C[C@H](NC(=O)[C@H](C)NC(=O)[C@H](C)NC(=O)[C@@H](NC(=O)[C@H](CO)NC(=O)[C@H](CC(C)C)NC(=O)[C@H](CCC(=O)O)NC(=O)[C@H](CO)NC(=O)[C@H](C)NC(=O)CC[C@H](NC(=O)CCCCCCCCCCCCCCCCCCC(=O)O)C(=O)O)[C@@H](C)O)C(=O)NCC(=O)N[C@@H](Cc1cnc[nH]1)C(=O)N[C@@H](CC(C)C)C(=O)N[C@@H](CO)C(=O)N[C@@H](C)C(=O)N[C@@H](CCC(=O)O)C(=O)N[C@@H](CC(C)C)C(=O)N[C@@H](Cc1cnc[nH]1)C(=O)N[C@@H](CCC(=O)O)C(=O)N[C@@H](CC(C)C)C(=O)N[C@@H](C)C(=O)N[C@H](C(=O)N[C@@H](CC(C)C)C(=O)N1CCC[C@H]1C(=O)N[C@@H](Cc1cnc[nH]1)C(=O)N[C@H](C(=O)N[C@@H](CCC(=O)O)C(=O)N[C@H](C(=O)NCC(=O)N[C@@H](CO)C(=O)NCC(=O)N[C@@H](CO)C(=O)N1CCC[C@H]1C(N)=O)[C@@H](C)O)[C@@H](C)O)[C@@H](C)O [compound 84, [N-terminal(C20 diacid-gGlu), des1, 12H, 25H, 30S, 31G]mimylin] ({C20 diacid-γGlu}-ASELSTAALGHLSAELHELATLPHTETGSGSP-NH2) | ≧200 μM | – | – | ≧200 μM | ≧200 μM | ≧200 μM | ≧200 μM | ≧200 μM | ≧200 μM | ≧200 μM
